The values that follow are results of earlier work, collected in patent US11980186B2, “Preparation method of eucalyptol emulsion and application thereof in biopesticides” (Jiangnan University, priority 2021, dated 2024).

The data set deals with B. tabaci. The conditions noted are these: literature value.

Values after ≈ are worked out from the molar mass of the structure shown.

`O=C1CCC[C@@H]2[C@H]3CCCN4CCC[C@@H](CN12)[C@@H]34` [matrine]: the “LC50 against the B. tabaci” value was 13.35 µg/mL (≈ 53.8 µM).
